According to publication PMC11859236, “A Sequential Ultrafiltration Method to Enhance the Accuracy and Throughput in Plasma Protein Binding Tests” (Pharmaceutics, 2025):
Structures can show the parent of a compound that is named as a salt. Where two headings read alike, the source gives them in different places. Values belong to the compound of their own block, whether it stands above or below them.

Experiments:
[1] = cited from earlier work
plasma proteins [2] = test: Sequential UF, plasma protein binding; settings: for Plasma protein binding (%): Sequential UF, rat plasma, mean (±SD)
Procedure: (§1) Rat plasma was collected from male Sprague Dawley rats purchased from Orient Bio Inc. (Seongnam, Republic of Korea). The plasma was separated from whole blood samples using centrifugation and was utilized immediately for the PPB test.
(§2) All compounds, with the exception of otaplimastat and ciclopirox, were added to 1 mL of blank plasma to achieve a drug concentration of 10 μM. Otaplimastat and ciclopirox were examined at concentrations of 5 μM and 1 μg/mL, respectively. The compound-added plasma samples were incubated in a water bath at 37 °C and agitated at 50 rpm for two hours prior to the PPB test.
(§3) A volume of 0.5 mL of the plasma sample was initially loaded onto the filter within the FT tube. The tube was then subjected to centrifugation at 14,000× g for 2 min at a temperature of 25 °C, serving as the pre-ultrafiltration (pre-UF) step.
(§4) The bound and unbound plasma fractions were subjected to linear regression analysis, with the regression line established by constraining the y-intercept to zero [14].

plasma proteins [3] = test: Mass balance UF, plasma protein binding; settings: for Plasma protein binding (%): Mass balance UF, rat plasma, mean (±SD)
Procedure: Washing procedures were performed in accordance with established methods for conventional ultrafiltration. Further procedures were conducted as per the protocols outlined by Wang and Williams. […] Following centrifugation, the filter was carefully detached from the FT tube, and the filtrate was removed. The filter was then inverted and transferred to a new retentate collection tube (RT tube), where it underwent a second centrifugation at 1000× g for 2 min at 25 °C. The retentate was subsequently extracted from the RT tube (Figure 2A).
In this equation, CR and VR represent the concentration and volume of the retentate obtained from the final RT tube, while CF and VF denote the concentration and volume of the filtrate collected from the FT tube.

plasma proteins [4] = settings: male, Sprague Dawley, rat, 2 h, 10 μM
Procedure: as §1, §2, §3, §4

plasma proteins [5] = test: Conventional UF with NSB correction using PBS, plasma protein binding; format: in vitro ADME; settings: male, Sprague Dawley, rat plasma, conventional UF with NSB correction by PBS, mean ± SD, read-out: percentage of PPB (converted)
Procedure: The device used in the experiment was Amicon® Ultra, which is commonly used in UF experiments. UF was conducted following the manufacturer's user guide. Briefly, the centrifugal filter units were washed once with 0.1N NaOH and then twice with double-distilled water by centrifugation at 14,000× g for 15 min. […] The exact process was performed using phosphate-buffered saline (PBS) instead of plasma to obtain a filtrate solution for correction with PBS [13]. […] In this equation, CSB indicates the concentration of the buffer sample, while CFB signifies the concentration of the filtrate sample derived from ultrafiltration using the buffer.

plasma proteins [6] = test: Conventional UF without NSB correction, plasma protein binding; format: in vitro ADME, rat; settings: male, Sprague Dawley
Procedure: The device used in the experiment was Amicon® Ultra, which is commonly used in UF experiments. UF was conducted following the manufacturer's user guide. Briefly, the centrifugal filter units were washed once with 0.1N NaOH and then twice with double-distilled water by centrifugation at 14,000× g for 15 min. […] The exact process was performed using phosphate-buffered saline (PBS) instead of plasma to obtain a filtrate solution for correction with PBS [13].

plasma proteins [7] = system: plasma proteins; design: method as in PMID 11709325; settings: equilibrium dialysis; cited from earlier work
Log p (lipophilicity) = format: physicochemical; settings: in-house unpublished data
Source text: Table 2 Log p value of the test compounds. | column: Log p

[8] = male, Sprague Dawley, rat, plasma

SMILES: CCc1c2c(nc3ccc(OC(=O)N4CCC(N5CCCCC5)CC4)cc13)-c1cc3c(c(=O)n1C2)COC(=O)[C@]3(O)CC [Irinotecan, irinotecan hydrochloride]
Log p [1]: 4.18

SMILES: O=c1c(O)c(-c2ccc(O)c(O)c2)oc2cc(O)cc(O)c12 [Quercetin, quercetin]
Log p [1]: 1.82
fraction unbound at 2 h, 10 μM (plasma proteins [2]; [8]): 0.0008
difference between CR and CF (retentate and filtrate concentration) (plasma proteins [3]; male, Sprague Dawley, rat, 2 h, 10 μM): 1000 fold
fraction unbound at 2 h, 10 μM (plasma proteins [3]; [8]): 0.0039
absolute difference in PPB between sequential UF and mass balance UF (plasma proteins [4]): 0.31%

SMILES: CCc1c2c(nc3ccc(O)cc13)-c1cc3c(c(=O)n1C2)COC(=O)[C@]3(O)CC [SN-38]
Log p [1]: 2.31
Plasma protein binding (%) (plasma proteins [2]; 10 μM): 95.47 (±0.88) %
Plasma protein binding (%) (plasma proteins [3]; 10 μM): 95.69 (±1.58) %

SMILES: CC(=O)N(CCCCNCCCn1c(=O)[nH]c2ccccc2c1=O)CCCn1c(=O)[nH]c2ccccc2c1=O [Otaplimastat]
Plasma protein binding (%) (plasma proteins [2]; 5 μM): 57.61 (±3.39) %
Plasma protein binding (%) (plasma proteins [3]; 5 μM): 50.63 (±11.71) %
Log p (Log p (lipophilicity)): 2.67

Second part, led by results:

fraction unbound at 2 h, 10 μM (plasma proteins [5]): 0.33
fraction unbound at 2 h, 10 μM (plasma proteins [6]; rat plasma, conventional UF without NSB correction, mean ± SD, read-out: percentage of PPB (converted)): 0.103
excess of PPB by conventional UF without NSB correction over PPB with NSB correction using PBS (plasma proteins [6]; rat, 2 h, 10 μM): 22.6%
fraction unbound at 2 h, 10 μM (plasma proteins [2]; [8]): 0.25
fraction unbound at 2 h, 10 μM (plasma proteins [3]; [8]): 0.3
SMILES: COC(=O)c1ccccc1-c1c2ccc(=N)cc-2oc2cc(N)ccc12 [Rhodamine 123, rhodamine 123]
Log p [1]: 1.06
protein binding, literature value (plasma proteins [7]): 70%

fraction unbound at 2 h, 1 μg/mL (plasma proteins [2]; [8]): 0.0129
fraction unbound at 2 h, 1 μg/mL (plasma proteins [3]; [8]): 0.0285
SMILES: Cc1cc(C2CCCCC2)n(O)c(=O)c1 [Ciclopirox]
Log p [1]: 2.73
